Consider one molecule from patent US11752111B2, “Use of cannabidivarin in the treatment of autism spectrum disorder, associated disorders and schizophrenia” (GW Research Limited, priority 2016, dated 2023).

The test system of assay [1] is MeCP2 KO mice. Kind of assay: Symptom scoring in Rett syndrome model. The format is in vivo, mouse. On the procedure:
CBDV was administered daily at the dose of 2, 20 and 200 mg/kg i.p. starting from PND 28 and the following signs were scored every other day: hindlimb clasping (indication of motor imbalance), tremor, gait (measure of coordination), breathing, mobility and general condition.
Starting from PND 28, mice received a daily intraperitoneal injection of CBDV (or vehicle) at the dose of 2, 20 and 200 mg/kg. Animals were then scored every other day to evaluate the effect of CBDV treatment on motor symptoms (hindlimb clasping, gait, mobility) as well as neurological signs and general conditions (breathing abnormalities, tremors and general condition) present in MeCP2 knockout (KO) mice.
Each of the six symptoms was scored from 0 to 2 (0 corresponds to the symptom being absent or the same as in the wild type (WT) animal; 1 when the symptom was present; 2 when the symptom was severe).
Mobility: the mouse is observed when placed on bench, then when handled gently. 0=as WT. 1=reduced movement when compared with WT: extended freezing period when first placed on bench and longer periods spent immobile. 2=no spontaneous movement when placed on the bench; mouse can move in response to a gentle prod or a food pellet placed nearby.
Gait: 0=as WT. 1=hind legs are spread wider than WT when walking or running with reduced pelvic elevation, resulting in a ‘waddling’ gait. 2=more severe abnormalities: tremor when feet are lifted, walks backward or ‘bunny hops’ by lifting both rear feet at once.
Hindlimb clasping: mouse observed when suspend by holding base of the tail. 0=legs splayed outward. 1=hindlimbs are drawn toward each other (without touching) or one leg is drawn into the body. 2=both legs are pulled in tightly, either touching each other or touching the body.
Tremor: mouse observed while standing on the flat palm of the hand. 0=no tremor. 1=intermittent mild tremor. 2=continuous tremor or intermittent violent tremor.
Breathing: movement of flanks observed while animal is standing still. 0=normal breathing. 1=periods of regular breathing interspersed with short periods of more rapid breathing or with pauses in breathing. 2=very irregular breathing-gasping or panting.
General condition: mouse observed for indicators of general well-being such as coat condition, eyes and body stance. 0=clean shiny coat, clear eyes, and normal stance. 1=eyes dull, coat dull/un-groomed, and somewhat hunched stance. 2=eyes crusted or narrowed, piloerection, and hunched posture.

In assay [2] the test system is MeCP2 KO mice. The assay can be described thus: Novel Object Recognition test, short- and long-term memory, Rett syndrome model. The format is in vivo, mouse. On the procedure: Furthermore, the efficacy of CBDV in reverting/attenuating the short- and long-term memory deficits present in these mice was evaluated. The Novel Object Recognition (NOR) test was performed before the starting of the treatment Post Natal Day 28 (PND 28), at PND 41 when the first motor symptoms appear and at PND 56 and 66 when the disease is fully manifested.
At PND 28, 41, 56 and 66 the effect of CBDV on short- and long-term memory deficits was investigated through the Novel Object Recognition (NOR) test.
The experimental apparatus used for the Novel Object Recognition test was an open-field box (43×43×32 cm) made of Plexiglas, placed in a dimly illuminated room. Animals performed each test individually.
Briefly, each animal was placed in the arena and allowed to explore two identical previously unseen objects for 10 minutes (familiarization phase). After an inter-trial interval of 30 minutes and 24 hours one of the two familiar objects was replaced by a novel, previously unseen object and mice were returned to the arena for the 10-minute test phase.
During the test phase the time spent exploring the familiar object (Ef) and the new object (En) was recorded separately by two observers blind to the groups and the discrimination index was calculated as follows: [(En−Ef)/(En+Ef)]×100.

Assay [3] relates to PCP-treated rats. Kind of assay: Social interaction test, sub-chronic PCP model of schizophrenia. The format is in vivo, rat. On the procedure:
Female hooded-Lister rats were used for this experiment. Rats were housed in groups of 5 under standard laboratory conditions under a 12 hr light: dark cycle, lights on at 0700 hr. Testing was carried out in the light phase.
Rats were randomly assigned to two treatment groups and treated with vehicle, n=20 (distilled water, i.p.) or Phencyclidine hydrochloride (PCP), n=100 (2 mg/kg, i.p. twice daily for 7-days). PCP was dissolved in distilled water. This was followed by a 7-day wash out period before the rats were tested following acute treatment with CBDV, risperidone or vehicle.
Risperidone (0.1 mg/kg) was dissolved in a minimum volume of acetic acid, made up to volume with distilled water and pH adjusted to 6 with 0.1M NaOH and administered via the i.p. route in a volume of 1 ml/kg, 60 min prior to testing.
CBDV at 2, 10 or 20 mg/kg was dissolved in 2:1:17 (Ethanol:Cremofor:Saline 0.9%) and administered via the i.p. route in a volume of 5 ml/kg, 60 min prior to testing.
The social interaction test is performed in an open-field comprising a square box made of Plexiglas (52×52×31 cm) placed 27 cm above the floor on a moveable trolley. The floor of the box is white with black gridlines forming 9 identical squares on it. All other walls are black. A video camera connected to a video recorder and monitor is positioned above the box. The object used for the test consists of a heavy structure made of metal that cannot be displaced by the animals.
The rats were habituated to the test environment and arena prior to the test day. Habituation consists of placing all rats from one cage together in the empty test arena for one hour for three days including the day before the test day.
Pairs of rats, weight matched (15-20 g) and unfamiliar to each other, receiving either no treatment (n=70 “conspecific” rats) or different treatments (PCP and Vehicle; n=10 “tested” rats or PCP+Drug; n=50 “tested” rats) were placed in the test arena together for 10 min and behaviour assessed as described below.
An inanimate object such as an unopened drinks can is also placed in the centre of the arena to measure any differences in interaction of the test animal with an unfamiliar animal as opposed to an unfamiliar object. After each 10 minute trial, the object and arena are cleaned with 10% alcohol in an attempt to remove traces of any olfactory cues. All testing is carried out under standard room illumination levels (70 cd/m2).
Behaviour in both trials was recorded on video for subsequent blind scoring. A behavioural scoring software program (Hindsight, Scientific programming services) is used to score the following parameters: • Investigative sniffing behaviour: sniffing the conspecific's snout or parts of the body including the anogenital region; • Following: rat moves after the conspecific i.e. a vehicle treated rat of the same species, around the arena; • Avoidances: actively turning away when approached by the conspecific animal; • Investigation of object: exploration of object placed in centre of the arena; and • Locomotor activity is recorded by counting the total number of sectors (i.e. lines) crossed by the test rat. Results

Turning to `C=C(C)[C@@H]1CCC(C)=C[C@H]1c1c(O)cc(CCC)cc1O` [CBDV, Cannabidivarin], the “total symptom score (FIG. 8)” value in assay [1] (2 mg/kg, PND 45, 47, 49, 55, 56, 57, 58, 60 and 64, KO mice) is “significantly improved total symptom score at every time point”; in assay [1] (200 mg/kg, KO mice), “exerted beneficial effect at a later time point (PND 47) and its protective effect was evident until PND 58”; in assay [1] (all three doses, KO mice vs KO-vehicle), “delay and attenuate the appearance of the phenotype”. The “breathing score (FIG. 6B)” value in assay [1] (2 mg/kg, PND 56 to 60, KO mice) is “significantly improve breathing”; in assay [1] (20 mg/kg, PND 57, KO mice), “significant effect”; in assay [1] (200 mg/kg, PND 57 and 60, KO mice), “effective”. In addition, the “tremor score (FIG. 6A)” value in assay [1] (2 mg/kg, PND 63, KO mice) was “still protective”; in assay [1] (200 mg/kg, PND 55 and 63, KO mice) it was “still able to reduce tremors”; in assay [1] (all three doses, PND 45-49, KO mice) it was “significantly delaying and reducing tremors”. In addition, the “general conditions (coat and eyes) (FIG. 7A)” value is listed as “significantly effective only at the earlier time point (PND 52)” in assay [1] (20 mg/kg, KO mice); “significantly improved” in assay [1] (2 and 200 mg/kg, PND 52-64, KO mice). Moreover, the “hindlimb clasping score (FIG. 6C)” value in assay [1] (200 mg/kg, KO mice) was “did not significantly affect”; in assay [1] (lower doses (2, 20 mg/kg), PND 47 and 49, KO mice), “significantly attenuate hindlimb clasping”. In assay [1] (200 mg/kg, PND 53 to 57, KO mice), the “gait score (FIG. 6D)” value was “significantly improved gait”. Also, the “mobility score (FIG. 7B)” value in assay [1] (KO mice) is listed as “reached statistical significance only at PND 64”. The “long-term memory in the NOR test (FIG. 10)” value in assay [2] (2, 20 and 200 mg/kg, 24 hours inter-trial interval, KO mice) is given as “significantly counteract the cognitive impairment”. In addition, the “short-term memory in the NOR test (FIG. 9)” value in assay [2] (2, 20 and 200 mg/kg, each time point (PND 41, 56, 66), 30 min inter-trial interval, KO mice) is on record as “significantly reverted the cognitive impairment”. For the same molecule, the “long-term recognition memory in the NOR test (FIG. 10)” value in assay [2] (WT littermates) is “without affecting recognition memory”. Further, in assay [2] (WT littermates), the “short-term recognition memory in the NOR test (FIG. 9)” value is “without affecting recognition memory”. In addition, the “time spent avoiding the other rat (FIG. 18C)” value in assay [3] (CBDV 20 mg/kg) is “reduce the amount of time”. For the same molecule, in assay [3] (CBDV 20 mg/kg), the “time spent following the other rat (FIG. 18B)” value is “increased the amount of time”. For the same molecule, the “time spent sniffing the other rat (FIG. 18A)” value in assay [3] (CBDV 10 and 20 mg/kg) is “significantly increased”. In addition, in assay [3] (CBDV acute i.p.), the “PCP effects on social interaction (sniffing, following, avoiding) (FIG. 18)” value is “reverse these effects in a statistically significant manner”.
